# Data as given in paper PMC8286840, “Identifying SARS-CoV-2 antiviral compounds by screening for small molecule inhibitors of Nsp3 papain-like protease” (Biochemical Journal, 2021).
# Where a name gives a salt, the structure may show the parent alone. Read-outs that look alike come from different tables or passages of the source. Where a SMILES comes first, the peptide text is derived from it.
# Assays:
# [1] = molecular target: T1, SARS-CoV-2 PLpro (nsp3 1564–1878) (Severe acute respiratory syndrome coronavirus 2, UniProt P0DTD1); assay: biochemical; design: FRET-quenched peptide (Pro3) cleavage by PLpro, 10 min pre-incubation, slope over 20 min, normalised to no-compound control; settings: read-out: % of control remaining
# [2] = molecular target: T1, SARS-CoV-2 PLpro (nsp3 1564–1878); assay: biochemical; design: FRET-quenched peptide (Pro3) cleavage by PLpro, 10 min pre-incubation, slope over 20 min, normalised to no-compound control; settings: read-out: % of control remaining; remark: listed apart in the source
smiles,measurement,setting,value
CC(C)c1cc(C(=O)N2Cc3ccc(CN4CCN(C)CC4)cc3C2)c(O)cc1O [AT13387],remaining activity at 3.75 µM,"[1]; Well no.=5061, high concentration screen",99.9%
same,remaining activity at 1.25 µM,"[2]; Well no.=5061, low concentration screen",95%
CC/C(=C(\c1ccccc1)c1ccc(OCCN(C)C)cc1)c1ccccc1 [Tamoxifen citrate],remaining activity at 3.75 µM,"[1]; Well no.=1184, high concentration screen",99.3%
same,remaining activity at 1.25 µM,"[2]; Well no.=1184, low concentration screen",97.1%
CC(C)c1ccc(C(=O)N=C(N)N)cc1S(C)(=O)=O [N''-[4-isopropyl-3-(methylsulfonyl)benzoyl]guanidine],remaining activity at 3.75 µM,"[1]; Well no.=5586, high concentration screen",91.3%
same,remaining activity at 1.25 µM,"[2]; Well no.=5586, low concentration screen",91.7%
CCCn1cnc2c1c(=O)n(CCCCC(C)=O)c(=O)n2C [Propentofylline],remaining activity at 3.75 µM,"[1]; Well no.=1403, high concentration screen",94%
same,remaining activity at 1.25 µM,"[2]; Well no.=1403, low concentration screen",95.1%
Oc1ccc(-c2nc(-c3ccc(F)cc3)c(-c3ccncc3)[nH]2)cc1 [SB 202190],remaining activity at 3.75 µM,"[1]; Well no.=2614, high concentration screen",95.5%
same,remaining activity at 1.25 µM,"[2]; Well no.=2614, low concentration screen",95%
COc1ccc(CCN(C)CCc2ccc(OC)c(OC)c2)cc1OC [YS-035 hydrochloride],remaining activity at 3.75 µM,"[1]; Well no.=1246, high concentration screen",102%
same,remaining activity at 1.25 µM,"[2]; Well no.=1246, low concentration screen",103%
Cc1ccc(NC(=O)c2ccc(CN3CCN(C)CC3)cc2)cc1Nc1nccc(-c2cccnc2)n1 [Imatinib],remaining activity at 3.75 µM,"[1]; Well no.=2839, high concentration screen",102%
same,remaining activity at 1.25 µM,"[2]; Well no.=1611, low concentration screen",102%
same,remaining activity at 1.25 µM,"[2]; Well no.=2839, low concentration screen",99.7%
COc1cc(N)c(Cl)cc1C(=O)OCCN1CCCCC1 [ML 10302],remaining activity at 3.75 µM,"[1]; Well no.=5486, high concentration screen",100%
same,remaining activity at 1.25 µM,"[2]; Well no.=5486, low concentration screen",98.8%
COC(=O)C[C@](O)(CCC(C)(C)O)C(=O)O[C@@H]1C(OC)=C[C@]23CCCN2CCc2cc4c(cc2[C@H]13)OCO4 [Harringtonine],remaining activity at 3.75 µM,"[1]; Well no.=3615, high concentration screen",103%
same,remaining activity at 1.25 µM,"[2]; Well no.=3615, low concentration screen",105%
Cc1c(C)c2c(c(C)c1O)CCC(C)(CN1CCN(c3cc(N4CCCC4)nc(N4CCCC4)n3)CC1)O2 (stereo not shown) [U-83836 dihydrochloride],remaining activity at 3.75 µM,"[1]; Well no.=1284, high concentration screen",106%
same,remaining activity at 1.25 µM,"[2]; Well no.=1284, low concentration screen",105%
COc1c(O)c2c(=O)cc(OC)c3c4c(OC)cc(=O)c5c(O)c(OC)c6c(c(c1CC(C)=C6C(C)=O)c23)c54 [Hypocrellin B],remaining activity at 3.75 µM,"[1]; Well no.=3691, high concentration screen",103%
same,remaining activity at 1.25 µM,"[2]; Well no.=3691, low concentration screen",100%
Cc1cn([C@@H]2O[C@H](CO)[C@@H](O)[C@H]2O)c(=O)nc1N [5-Methylcytidine],remaining activity at 3.75 µM,"[1]; Well no.=6585, high concentration screen",104%
same,remaining activity at 3.75 µM,"[1]; Well no.=8853, high concentration screen",88.8%
same,remaining activity at 1.25 µM,"[2]; Well no.=6585, low concentration screen",103%
same,remaining activity at 1.25 µM,"[2]; Well no.=8853, low concentration screen",100%
CC(C)Cn1c(=O)n(C)c(=O)c2[nH]cnc21 [3-Isobutyl-1-methylxanthine],remaining activity at 3.75 µM,"[1]; Well no.=773, high concentration screen",106%
same,remaining activity at 1.25 µM,"[2]; Well no.=773, low concentration screen",108%
"CO[C@H]1[C@@H](OC)C[C@H](C)[C@@H](OC)C2=CC(=O)C=C(NC(=O)/C(C)=C/C=C\[C@H](OC)[C@@H](OC(N)=O)/C(C)=C/[C@@H]1C)C2=O [Herbimycin A, Streptomyces sp.]",remaining activity at 3.75 µM,"[1]; Well no.=2419, high concentration screen",111%
same,remaining activity at 1.25 µM,"[2]; Well no.=2419, low concentration screen",104%
CC(C(=O)O)C(=O)O [Methylmalonate],remaining activity at 3.75 µM,[1],95.5%
same,remaining activity at 1.25 µM,[2],100%
C/C=C1/C[C@@H](C)[C@@](C)(O)C(=O)OCC2=CCN3CC[C@@H](OC1=O)[C@@H]23 [Senecionine],remaining activity at 3.75 µM,"[1]; Well no.=3464, high concentration screen",99.1%
same,remaining activity at 1.25 µM,"[2]; Well no.=3464, low concentration screen",98.3%
CC(=O)N[C@@H](Cc1ccc(O)cc1)C(=O)O [N-Acetyl-L-tyrosine],remaining activity at 3.75 µM,"[1]; Well no.=6677, high concentration screen",104%
same,remaining activity at 3.75 µM,"[1]; Well no.=8704, high concentration screen",99.9%
same,remaining activity at 1.25 µM,"[2]; Well no.=6677, low concentration screen",105%
same,remaining activity at 1.25 µM,"[2]; Well no.=8704, low concentration screen",101%
Cc1cc(CN2CCN(c3c(Br)cnc4nc(-c5ccc(N6CCN(C)CC6)cc5)[nH]c34)CC2)no1 [CCT137690],remaining activity at 3.75 µM,"[1]; Well no.=5033, high concentration screen",99.3%
same,remaining activity at 1.25 µM,"[2]; Well no.=5033, low concentration screen",98%
CC(C)c1cc(/C=C(\C#N)C(=O)NCCCc2ccccc2)cc(C(C)C)c1O [Tyrphostin SU 1498],remaining activity at 3.75 µM,"[1]; Well no.=5970, high concentration screen",89.5%
same,remaining activity at 1.25 µM,"[2]; Well no.=5970, low concentration screen",90%
O=C(/C=C/c1ccc(Cl)cc1)N1CCC2(CC1)CN(Cc1ccc(Cl)c(Cl)c1)C(=O)O2 [GSK682753A],remaining activity at 3.75 µM,"[1]; Well no.=7054, high concentration screen",101%
same,remaining activity at 1.25 µM,"[2]; Well no.=7054, low concentration screen",107%
O=C(O)c1cc(/N=N/c2ccc(O)c(C(=O)O)c2)ccc1O [Olsalazine (Disodium)],remaining activity at 3.75 µM,"[1]; Well no.=7496, high concentration screen",92.2%
same,remaining activity at 1.25 µM,"[2]; Well no.=7496, low concentration screen",93.9%
COC(=O)[C@@H](N)CCCNC(=N)N[N+](=O)[O-] [NG-Nitro-L-arginine methyl ester hydrochloride],remaining activity at 3.75 µM,"[1]; Well no.=1001, high concentration screen",98.3%
same,remaining activity at 1.25 µM,"[2]; Well no.=1001, low concentration screen",99.6%
CCCCC[C@H](O)/C=C/[C@@H]1[C@H]2C/C(=C/CCCC(=O)O)O[C@H]2C[C@H]1O [Prostaglandin I2 Na],remaining activity at 3.75 µM,"[1]; Well no.=4483, high concentration screen",102%
same,remaining activity at 1.25 µM,"[2]; Well no.=4483, low concentration screen",99%
O=C(N[C@@H]1CC[C@@H](c2cccc(F)c2F)CN(CC(F)(F)F)C1=O)N1CCC(n2c(=O)[nH]c3ncccc32)CC1 [MK-0974],remaining activity at 3.75 µM,"[1]; Well no.=7709, high concentration screen",108%
same,remaining activity at 1.25 µM,"[2]; Well no.=7709, low concentration screen",102%
NS(=O)(=O)c1cccc2c1c([N+](=O)[O-])cc1nc(O)c(O)nc12 [NBQX disodium],remaining activity at 3.75 µM,"[1]; Well no.=942, high concentration screen",98%
same,remaining activity at 1.25 µM,"[2]; Well no.=942, low concentration screen",101%
N[C@@H](Cc1ccccc1)C(=O)N[C@@H](Cc1ccccc1)C(=O)O [H-Phe-Phe-OH] (H-Phe-Phe-OH),remaining activity at 3.75 µM,"[1]; Well no.=8742, high concentration screen",104%
same,remaining activity at 1.25 µM,"[2]; Well no.=8742, low concentration screen",96.6%
CC(C)OC(=O)C1=CN(C(=O)c2ccc(F)c(F)c2)CC(C)(C)c2c1[nH]c1ccccc21 [WAY-362450],remaining activity at 3.75 µM,"[1]; Well no.=4928, high concentration screen",96.2%
same,remaining activity at 1.25 µM,"[2]; Well no.=4928, low concentration screen",95.1%
O=C(O)c1ccc(-n2nc(-c3ccccc3O)nc2-c2ccccc2O)cc1 [Deferasirox],remaining activity at 3.75 µM,"[1]; Well no.=8190, high concentration screen",100%
same,remaining activity at 1.25 µM,"[2]; Well no.=8190, low concentration screen",107%
Nc1n[nH]c(N)c1N=Nc1ccc(O)cc1 [Cdk9 Inhibitor II],remaining activity at 3.75 µM,"[1]; Well no.=2395, high concentration screen",103%
same,remaining activity at 1.25 µM,"[2]; Well no.=2395, low concentration screen",104%
CC(N)Cc1c[nH]c2ccc(O)cc12 (stereo not drawn) [alpha-Methyl-5-hydroxytryptamine maleate],remaining activity at 3.75 µM,"[1]; Well no.=895, high concentration screen",106%
same,remaining activity at 1.25 µM,"[2]; Well no.=895, low concentration screen",106%
CCCNC(=O)[C@H]1O[C@@H]1C(=O)N[C@H](C(=O)N1CCC[C@H]1C(=O)O)[C@@H](C)CC [CA-074],remaining activity at 3.75 µM,"[1]; Well no.=8272, high concentration screen",101%
same,remaining activity at 1.25 µM,"[2]; Well no.=8272, low concentration screen",104%
"COc1cc(Br)c(S(=O)(=O)Nc2ccc(Cl)c(O[C@@H]3CCN(C)C3)c2)cc1OC [2-bromo-N-(4-chloro-3-{[(3R)-1-methyl-3-pyrrolidinyl]oxy}phenyl)-4,5-dimethoxybenzenesulfonamide]",remaining activity at 3.75 µM,"[1]; Well no.=5501, high concentration screen",105%
same,remaining activity at 1.25 µM,"[2]; Well no.=5501, low concentration screen",99.8%
CNCCNS(=O)(=O)c1cccc2cnccc12 [H-8 dihydrochloride],remaining activity at 3.75 µM,"[1]; Well no.=893, high concentration screen",99.3%
same,remaining activity at 1.25 µM,"[2]; Well no.=893, low concentration screen",103%
O=c1oc2c(O)c(O)cc3c(=O)oc4c(O)c(O)cc1c4c23 [Ellagic acid],remaining activity at 3.75 µM,"[1]; Well no.=3346, high concentration screen",101%
same,remaining activity at 1.25 µM,"[2]; Well no.=3346, low concentration screen",99.4%
